Test results: patent publication US20200283384A1, “ANTIBACTERIAL COMPOUNDS AND METHODS OF USE THEREOF” (Wayne State University, priority 2016, published 2020)
≈ marks a conversion by molar mass, not a printed value. Read-outs that look alike come from different tables or passages of the source.

Tests used:
[1] = system: 24 strains of S. aureus (SA1-SA24); test: Broth micro-dilution MIC against 24 strains of S. aureus; assay type: cell-based; settings: for MIC: Staphylococcus aureus, read-out: Compound MIC
Method: Compounds were tested for their anti-bacterial activity against 56 clinical isolates including 24 clinical isolates of methicillin resistant S. aureus (MRSA) and methicillin-susceptible S. aureus (MSSA), 8 strains of Enterococcus, 8 strains of Acinetobacter baumannii, 8 strains of Klebsiella pneumoniae, and 8 strains of Pseudomonas aeruginosa using a standard broth micro-dilution method as recommended by the Clinical and Laboratory Standard Institute (CLSI, M100, s23).
HN18 HN19, and HN34 were tested by a broth micro-dilution method to determine their minimal inhibitory concentration (MIC) against 24 strains of S. aureus (SA1-SA24) (Table 2). […]. Furthermore, the results for HN18 and HN34 were consistent across four repeated experiments. […]

[2] = system: methicillin-resistant S. aureus clinical isolates (MRSA); S. aureus (K1902); test: Plasmid curing at sub-inhibitory concentration; assay type: cell-based, Staphylococcus aureus
Method: Plasmid curing was performed per Trevors (Trevors, 1986 Plasmid curing in bacteria. FEMS Microbiology, 32: 149-157). In brief, the clinical isolate was grown in the presence of HN18 and HN34 at the specified concentration for 18 h at 35° C. and then plated on Muller Hinton agar (MHA) plates to obtain isolated colonies. The isolated colonies were then replica plated onto MHA and MHA plates containing antibiotics. […] The percentage curing efficiency was expressed as the number of colonies with cured phenotype per 100 colonies tested. For plasmid extraction, 5 ml of an overnight culture of S. aureus strain was centrifuged and cells were subjected to 1 ml lysostaphin (20 μg/ml) for 1 hour at 35° C. prior to DNA extraction. Extraction of DNA was carried using QIAprep Spin Miniprep Kit (Qiagen) per manufacturer's instruction. DNA profile analysis was carried out by electrophoresis on 1.5% agarose gel.
The methicillin-resistant S. aureus clinical isolates (MRSA) growing in the presence of sub-inhibitory concentrations of HN18 and HN34 were taken for the evaluation for the loss of plasmids as described above. A culture control without a curing agent was also maintained in the curing experiment to estimate the rate of spontaneous loss of plasmids under these conditions. HN18 and HN34 eliminated the plasmid mediated antibiotic resistance markers with varying curing efficiencies (Table 3). HN18 cured plasmids from SA1, SA2, SA7 and SA8 at frequency in the range of 13-100%. HN34 also cured plasmids from SA1, SA2, SA7 and SA8 strains with 30%-100% curing efficiency.
(§1) Plasmid curing activity of HN18 and HN34 was also evaluated in S. aureus (K1902) which is known to harbor a 5 kb plasmid with a chloramphenicol resistance gene. Along with the KSA reference strain, the plasmid curing activity was repeated for SA1 and SA2 strains which are MRSA (Table 4).

[3] = system: Methicillin-resistant S. aureus strains; S. aureus (K1902); test: MIC and SIC in 96 well microplates (plasmid curing study); assay type: cell-based, Staphylococcus aureus
Method: Plasmid curing activity of HN18 and HN34 was evaluated. Methicillin-resistant S. aureus strains were sub-cultured on blood agar plates to obtain isolated colonies, incubated at 35° C. in a CO2 incubator. The fresh overnight bacterial inoculum was prepared by re-suspending a few isolated colonies in a tube containing 5 ml of saline. […] The sub-inhibitory concentration (SIC) is defined as the concentration before MIC (in a serial dilution method where antibiotic concentration decreases by half from each tube to the next one).
as §1

[4] = Table 3, isolate SA1, at SIC, lack of growth in presence of M, Ox (4 μg/ml)
[5] = Table 3, isolate SA2, at SIC, lack of growth in presence of M, Ox (4 μg/ml)
[6] = Table 3, isolate SA3, at SIC, lack of growth in presence of M, Ox (4 μg/ml)
[7] = Table 3, isolate SA4, at SIC, lack of growth in presence of M, Ox (4 μg/ml)
[8] = Table 3, isolate SA5, at SIC, lack of growth in presence of M, Ox (4 μg/ml)
[9] = Table 3, isolate SA6, at SIC, lack of growth in presence of M, Ox (4 μg/ml)
[10] = Table 3, isolate SA7, at SIC, lack of growth in presence of M, Ox (4 μg/ml)
[11] = Table 3, isolate SA8, at SIC, lack of growth in presence of M, Ox (4 μg/ml)
[12] = Table 4, KSA (S. aureus K1902), experiment I
[13] = Table 4, KSA (S. aureus K1902), experiment II
[14] = Table 4, isolate SA1, experiment I
[15] = Table 4, isolate SA1, experiment II
[16] = Table 4, isolate SA2, experiment II

Fc1ccc(C(C2=CNC3C=CC=CC23)C2=C3C=CC=CC3NC2)cc1F (centres unmarked) [HN18, 3-((3,4-difluorophenyl)(2,7a-dihydro-1H-indol-3-yl)methyl)-3a,7a-dihydro-1H-indole]
Effect against the panel of S. aureus strains ([1]; 24 strains SA1-SA24, broth micro-dilution): effective | MIC ([1]; isolate SA1, experiment I): 0.5 µg/mL (≈ 1.38 µM) | MIC ([1]; isolate SA1, experiment II): 1 µg/mL (≈ 2.76 µM) | MIC ([1]; isolate SA1, experiment III): 1 µg/mL (≈ 2.76 µM) | MIC ([1]; isolate SA1, experiment IV): 1 µg/mL (≈ 2.76 µM) | MIC ([1]; isolate SA2, experiment I): 1 µg/mL (≈ 2.76 µM) | MIC ([1]; isolate SA2, experiment II): 2 µg/mL (≈ 5.52 µM) | MIC ([1]; isolate SA2, experiment III): 2 µg/mL (≈ 5.52 µM) | MIC ([1]; isolate SA2, experiment IV): 2 µg/mL (≈ 5.52 µM) | MIC ([1]; isolate SA3, experiment I): 1 µg/mL (≈ 2.76 µM) | MIC ([1]; isolate SA3, experiment II): 2 µg/mL (≈ 5.52 µM) | MIC ([1]; isolate SA3, experiment III): 2 µg/mL (≈ 5.52 µM) | MIC ([1]; isolate SA3, experiment IV): 2 µg/mL (≈ 5.52 µM) | MIC ([1]; isolate SA4, experiment I): 1 µg/mL (≈ 2.76 µM) | MIC ([1]; isolate SA4, experiment II): 2 µg/mL (≈ 5.52 µM) | MIC ([1]; isolate SA4, experiment III): 1 µg/mL (≈ 2.76 µM) | MIC ([1]; isolate SA4, experiment IV): 2 µg/mL (≈ 5.52 µM) | MIC ([1]; isolate SA5, experiment I): 1 µg/mL (≈ 2.76 µM) | MIC ([1]; isolate SA5, experiment II): 1 µg/mL (≈ 2.76 µM) | MIC ([1]; isolate SA5, experiment III): 1 µg/mL (≈ 2.76 µM) | MIC ([1]; isolate SA5, experiment IV): 2 µg/mL (≈ 5.52 µM) | MIC ([1]; isolate SA6, experiment I): 1 µg/mL (≈ 2.76 µM) | MIC ([1]; isolate SA6, experiment II): 2 µg/mL (≈ 5.52 µM) | MIC ([1]; isolate SA6, experiment III): 2 µg/mL (≈ 5.52 µM) | MIC ([1]; isolate SA6, experiment IV): 2 µg/mL (≈ 5.52 µM) | MIC ([1]; isolate SA7, experiment I): 0.5 µg/mL (≈ 1.38 µM) | MIC ([1]; isolate SA7, experiment II): 1 µg/mL (≈ 2.76 µM) | MIC ([1]; isolate SA7, experiment III): 1 µg/mL (≈ 2.76 µM) | MIC ([1]; isolate SA7, experiment IV): 1 µg/mL (≈ 2.76 µM) | MIC ([1]; isolate SA8, experiment I): 1 µg/mL (≈ 2.76 µM) | MIC ([1]; isolate SA8, experiment II): 2 µg/mL (≈ 5.52 µM) | MIC ([1]; isolate SA8, experiment III): 2 µg/mL (≈ 5.52 µM) | MIC ([1]; isolate SA8, experiment IV): 2 µg/mL (≈ 5.52 µM) | MIC ([1]; isolate SA9, experiment I): 2 µg/mL (≈ 5.52 µM) | MIC ([1]; isolate SA9, experiment II): 2 µg/mL (≈ 5.52 µM) | MIC ([1]; isolate SA10, experiment I): 2 µg/mL (≈ 5.52 µM) | MIC ([1]; isolate SA10, experiment II): 2 µg/mL (≈ 5.52 µM) | MIC ([1]; isolate SA11, experiment I): 2 µg/mL (≈ 5.52 µM) | MIC ([1]; isolate SA11, experiment II): 2 µg/mL (≈ 5.52 µM) | MIC ([1]; isolate SA12, experiment I): 2 µg/mL (≈ 5.52 µM) | MIC ([1]; isolate SA12, experiment II): 2 µg/mL (≈ 5.52 µM) | MIC ([1]; isolate SA13, experiment I): 2 µg/mL (≈ 5.52 µM) | MIC ([1]; isolate SA13, experiment II): 2 µg/mL (≈ 5.52 µM) | MIC ([1]; isolate SA14, experiment I): 0.5 µg/mL (≈ 1.38 µM) | MIC ([1]; isolate SA14, experiment II): 0.5 µg/mL (≈ 1.38 µM) | MIC ([1]; isolate SA15, experiment I): 2 µg/mL (≈ 5.52 µM) | MIC ([1]; isolate SA15, experiment II): 2 µg/mL (≈ 5.52 µM) | MIC ([1]; isolate SA16, experiment I): 1 µg/mL (≈ 2.76 µM) | MIC ([1]; isolate SA16, experiment II): 2 µg/mL (≈ 5.52 µM) | MIC ([1]; isolate SA17, experiment I): 2 µg/mL (≈ 5.52 µM) | MIC ([1]; isolate SA17, experiment II): 2 µg/mL (≈ 5.52 µM) | MIC ([1]; isolate SA18, experiment I): 2 µg/mL (≈ 5.52 µM) | MIC ([1]; isolate SA18, experiment II): 2 µg/mL (≈ 5.52 µM) | MIC ([1]; isolate SA19, experiment I): 2 µg/mL (≈ 5.52 µM) | MIC ([1]; isolate SA19, experiment II): 2 µg/mL (≈ 5.52 µM) | MIC ([1]; isolate SA20, experiment I): 2 µg/mL (≈ 5.52 µM) | MIC ([1]; isolate SA20, experiment II): 2 µg/mL (≈ 5.52 µM) | MIC ([1]; isolate SA21, experiment I): 2 µg/mL (≈ 5.52 µM) | MIC ([1]; isolate SA21, experiment II): 2 µg/mL (≈ 5.52 µM) | MIC ([1]; isolate SA22, experiment I): 2 µg/mL (≈ 5.52 µM) | MIC ([1]; isolate SA22, experiment II): 2 µg/mL (≈ 5.52 µM) | MIC ([1]; isolate SA23, experiment I): 2 µg/mL (≈ 5.52 µM) | MIC ([1]; isolate SA23, experiment II): 2 µg/mL (≈ 5.52 µM) | MIC ([1]; isolate SA24, experiment I): 2 µg/mL (≈ 5.52 µM) | MIC ([1]; isolate SA24, experiment II): 2 µg/mL (≈ 5.52 µM) | Plasmid band in agarose gel of cured derivatives ([2]; S. aureus K1902, FIG. 3): absent | Susceptibility of isolates after exposure to SIC ([2]; SA1 and SA2 to oxacillin, KSA to chloramphenicol): became susceptible | Curing efficiency I [2, 4]: 0% | Curing efficiency II [2, 4]: 100% | Curing efficiency I [2, 5]: 100% | Curing efficiency II [2, 5]: 50% | Curing efficiency I [2, 6]: 0% | Curing efficiency II [2, 6]: 0% | Curing efficiency I [2, 7]: 100% | Curing efficiency II [2, 7]: 0% | Curing efficiency I [2, 8]: 0% | Curing efficiency II [2, 8]: 0% | Curing efficiency I [2, 9]: 0% | Curing efficiency II [2, 9]: 0% | Curing efficiency I [2, 10]: 23% | Curing efficiency II [2, 10]: 90% | Curing efficiency I [2, 11]: 13% | Curing efficiency II [2, 11]: 70% | Curing efficiency (%) ([2]; Table 4, KSA (S. aureus K1902), experiment I, lack of growth in presence of Cm (10 μg/ml)): 36.6% | Curing efficiency (%) ([2]; Table 4, KSA (S. aureus K1902), experiment II, lack of growth in presence of Cm (10 μg/ml)): 46.6% | Curing efficiency (%) ([2]; Table 4, isolate SA1, experiment I, lack of growth in presence of M, Ox (4 μg/ml)): 63.3% | Curing efficiency (%) ([2]; Table 4, isolate SA2, experiment I, lack of growth in presence of M, Ox (4 μg/ml)): 100% | Plasmid curing frequency / curing efficiency ([2]; range over SA1, SA2, SA7 and SA8): 13-100% | SIC ([3]; Table 3, isolate SA1 (MRSA)): 0.5 µg/mL | SIC ([3]; Table 3, isolate SA2 (MRSA)): 1.0 µg/mL | SIC ([3]; Table 3, isolate SA3 (MRSA)): 1.0 µg/mL | SIC ([3]; Table 3, isolate SA4 (MRSA)): 0.5 µg/mL | SIC ([3]; Table 3, isolate SA5 (MRSA)): 1.0 µg/mL | SIC ([3]; Table 3, isolate SA6 (MRSA)): 0.5 µg/mL | SIC ([3]; Table 3, isolate SA7 (MRSA)): 0.5 µg/mL | SIC ([3]; Table 3, isolate SA8 (MRSA)): 1.0 µg/mL | MIC [3, 12]: 2 µg/mL (≈ 5.52 µM) | SIC [3, 12]: 1 µg/mL | MIC [3, 13]: 2 µg/mL (≈ 5.52 µM) | SIC [3, 13]: 1 µg/mL | MIC [3, 14]: 2 µg/mL (≈ 5.52 µM) | SIC [3, 14]: 1 µg/mL | MIC [3, 15]: 2 µg/mL (≈ 5.52 µM) | SIC [3, 15]: 1 µg/mL | SIC ([3]; Table 4, isolate SA2, experiment I): 1 µg/mL | MIC [3, 16]: 2 µg/mL (≈ 5.52 µM) | SIC [3, 16]: 1 µg/mL
